Molecules are shown by their SMILES.

Usually inhibition stands for the relative decrease from the control value, in per cent. Broadly, the IC50 is the concentration needed to halve the response being measured. Higher therefore signals lower potency.

One test has as its target T1, vanilloid receptor (VR1) (Homo sapiens, UniProt Q8NER1).
T1 construct: expressed in transfected cells; host or cells: CHO K1 cells (ECACC), stably transfected
Put plainly: Functional testing on vanilloid receptor (VR1): FLIPR Ca2+ inflow assay in CHO K1 cells stably transfected with the VR1 gene. Type of test: cell-based. To be noted: for inhibition at 10 µM: CHO-K1, inhibition compared to 10 μM CP (capsaicin); for activation at 10 µM: CHO-K1, stimulation compared to 10 μM CP (capsaicin). An excerpt: II. Functional Testing Carried Out on the Vanilloid Receptor (VR1)
The agonistic or antagonistic effect of the substances to be tested can also be determined on the vanilloid receptor (VR1) using the following assay. According to this assay, the Ca^2+ inflow is quantified through the channel using a Ca^2+-sensitive dye (type Fluo-4, Molecular Probes Europe BV, Leiden, Netherlands) in a fluorescent imaging plate reader (FLIPR, Molecular Devices, Sunnyvale, USA).
Chinese hamster ovary cells (CHO K1 cells, European Collection of Cell Cultures (ECACC) United Kingdom) were stably transfected with the VR1 gene. For functional testing, these cells were plated out on poly-D-lysine-coated black 96 well plates having a clear base (BD Biosciences, Heidelberg, Germany) at a density of 25,000 cells/well. The cells were incubated overnight at 37° C. and 5% CO2 in a culture medium (Ham's F12 nutrient mixture, 10% by volume of FCS (foetal calf serum), 18 μg/ml L-proline). The next day the cells were incubated with Fluo-4 (Fluo-4 2 μM, 0.01% by volume of Pluronic F127, Molecular Probes in HBSS (Hank's buffered saline solution), Gibco Invitrogen GmbH, Karlsruhe, Germany) for 30 minutes at 37° C. Subsequently, the plates were washed 3 times with HBSS buffer and after further incubation for 15 minutes at room temperature used for Ca^2+ measurement in a FLIPR assay. The Ca^2+-dependent fluorescence was measured before and after the addition of the substances to be tested (λex wavelength=488 nm, λem=540 nm). Quantification was carried out by measuring the highest fluorescence intensity (FC, Fluorescence Counts) over time.
The FLIPR protocol consists of 2 substance additions. First the compounds to be tested (10 μM) were pipetted onto the cells and the Ca^2+ inflow was compared with the control (capsaicin 10 μM) (% activation based on the Ca^2+ signal after the addition of 10 μM capsaicin). After 5 minutes' incubation, 100 nM of capsaicin were administered and the Ca^2+ inflow was also determined.
Desensitising agonists and antagonists led to suppression of the Ca^2+ inflow. The % inhibition was calculated compared to the maximum achievable inhibition with 10 μM of capsaicin.

Test [1] has as its target T2, rat-species vanilloid receptor 1 (VR1/TRPV1) (Rattus norvegicus, UniProt O35433).
T2 construct: endogenous in cells; host or cells: primary cells dissociated from rat dorsal root ganglia (DRG)
As to the kind of experiment: Functional testing on vanilloid receptor 1 (VR1/TRPV1): FLIPR Ca2+ inflow assay in rat dorsal root ganglia cells (% activation / % inhibition vs capsaicin). The test is classed as cell-based. To be noted: for inhibition at 10 µM: inhibition compared to 10 μM CP (capsaicin); for activation at 10 µM: stimulation compared to 10 μM CP (capsaicin). On the procedure: Preference may also be given to substituted spiro compounds according to the invention of general formula I which in a FLIPR assay in a concentration of 10 μM display inhibition of the Ca^2+ ion inflow in dorsal root ganglia of rats of at least 30%, preferably of at least 40%, particularly preferably of at least 50%, most particularly preferably of at least 70%, even more preferably of at least 90%, compared to the maximum achievable inhibition of the Ca^2+ ion inflow with capsaicin in a concentration of 10 μM.
In the FLIPR assay, the Ca^2+ inflow is quantified using a Ca^2+-sensitive dye (type Fluo-4, Molecular Probes Europe BV, Leiden, Netherlands) in a fluorescent imaging plate reader (FLIPR, Molecular Devices, Sunnyvale, USA), as described hereinafter.
I. Functional Testing Carried Out on the Vanilloid Receptor 1 (VR1/TRPV1 Receptor)
The agonistic or antagonistic effect of the substances to be tested can be determined on the rat-species vanilloid receptor 1 (VR1/TRPV1) using the following assay. According to this assay, the Ca^2+ inflow is quantified through the receptor channel using a Ca^2+-sensitive dye (type Fluo-4, Molecular Probes Europe BV, Leiden, Netherlands) in a fluorescent imaging plate reader (FLIPR, Molecular Devices, Sunnyvale, USA).
Complete medium: 50 mL HAMS F12 nutrient mixture (Gibco Invitrogen GmbH, Karlsruhe, Germany) with
10% by volume of FCS (foetal calf serum, Gibco Invitrogen GmbH, Karlsruhe, Germany, […]);
2 mM L-glutamine (Sigma, Munich, Germany);
1% by weight of AA solution (antibiotic/antimyotic solution, PAA, Pasching, Austria)
and 25 ng/ml NGF medium (2.5 S, Gibco Invitrogen GmbH, Karlsruhe, Germany)
Cell culture plate: Poly-D-lysine-coated, black 96 well plates having a clear base (96 well black/clear plate, BD Biosciences, Heidelberg, Germany) were additionally coated with laminin (Gibco Invitrogen GmbH, Karlsruhe, Germany), the laminin being diluted with PBS (Ca—Mg-free PBS, Gibco Invitrogen GmbH, Karlsruhe, Germany) to a concentration of 100 μg/mL. Aliquots having a laminin concentration of 100 μg/mL were removed and stored at −20° C. The aliquots were diluted with PBS in a ratio of 1:10 to 10 μg/mL laminin and in each case 50 μL of the solution were pipetted into a recess in the cell culture plate. The cell culture plates were incubated for at least two hours at 37° C., the excess solution was removed by suction-filtration and the recesses were each washed twice with PBS. The coated cell culture plates were stored with excess PBS which was not removed until just before the feeding of the cells.
Preparation of the Cells:
The vertebral column was removed from decapitated rats and placed immediately into cold HBSS buffer (Hank's buffered saline solution, Gibco Invitrogen GmbH, Karlsruhe, Germany), i.e. buffer located in an ice bath, mixed with 1% by volume (percent by volume) of an AA solution (antibiotic/antimyotic solution, PAA, Pasching, Austria). The vertebral column was cut longitudinally and removed together with fasciae from the vertebral canal. Subsequently, the dorsal root ganglia (DRG) were removed and again stored in cold HBSS buffer mixed with 1% by volume of an AA solution. The DRG, from which all blood remnants and spinal nerves had been removed, were transferred in each case to 500 μL of cold type 2 collagenase (PAA, Pasching, Austria) and incubated for 35 minutes at 37° C. After the addition of 2.5% by volume of trypsin (PAA, Pasching, Austria), incubation was continued for 10 minutes at 37° C. After complete incubation, the enzyme solution was carefully pipetted off and 500 μL of complete medium were added to each of the remaining DRG. The DRG were in each case suspended several times, drawn through cannulae No. 1, No. 12 and No. 16 using a syringe and transferred to a 50 mL Falcon tube which was filled up to 15 mL with complete medium. […]

Setting [2] is: capsaicin (CAP) stimulus, average.

T2 sequence (O35433 whole entry): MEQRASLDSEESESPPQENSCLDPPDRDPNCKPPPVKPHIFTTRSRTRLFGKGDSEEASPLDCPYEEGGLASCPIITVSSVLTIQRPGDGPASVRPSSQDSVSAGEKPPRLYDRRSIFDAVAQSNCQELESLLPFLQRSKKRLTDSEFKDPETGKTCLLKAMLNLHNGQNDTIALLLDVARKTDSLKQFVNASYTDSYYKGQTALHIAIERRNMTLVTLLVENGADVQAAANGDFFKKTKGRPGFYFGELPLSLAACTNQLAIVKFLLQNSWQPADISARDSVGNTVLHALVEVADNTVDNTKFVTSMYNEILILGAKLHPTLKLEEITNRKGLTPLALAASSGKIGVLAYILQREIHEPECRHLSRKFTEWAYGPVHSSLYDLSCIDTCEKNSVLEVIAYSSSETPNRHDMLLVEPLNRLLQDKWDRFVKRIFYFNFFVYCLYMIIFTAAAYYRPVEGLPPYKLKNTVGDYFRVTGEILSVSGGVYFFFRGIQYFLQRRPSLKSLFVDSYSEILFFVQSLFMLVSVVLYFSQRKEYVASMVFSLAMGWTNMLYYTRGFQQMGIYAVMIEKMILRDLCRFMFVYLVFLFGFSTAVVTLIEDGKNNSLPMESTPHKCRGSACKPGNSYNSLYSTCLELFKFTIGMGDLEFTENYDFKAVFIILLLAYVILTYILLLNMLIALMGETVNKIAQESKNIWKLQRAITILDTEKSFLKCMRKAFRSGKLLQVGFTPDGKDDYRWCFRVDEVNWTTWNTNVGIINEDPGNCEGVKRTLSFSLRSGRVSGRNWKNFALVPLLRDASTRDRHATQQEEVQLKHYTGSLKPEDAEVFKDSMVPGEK
T1 sequence (Q8NER1 whole entry): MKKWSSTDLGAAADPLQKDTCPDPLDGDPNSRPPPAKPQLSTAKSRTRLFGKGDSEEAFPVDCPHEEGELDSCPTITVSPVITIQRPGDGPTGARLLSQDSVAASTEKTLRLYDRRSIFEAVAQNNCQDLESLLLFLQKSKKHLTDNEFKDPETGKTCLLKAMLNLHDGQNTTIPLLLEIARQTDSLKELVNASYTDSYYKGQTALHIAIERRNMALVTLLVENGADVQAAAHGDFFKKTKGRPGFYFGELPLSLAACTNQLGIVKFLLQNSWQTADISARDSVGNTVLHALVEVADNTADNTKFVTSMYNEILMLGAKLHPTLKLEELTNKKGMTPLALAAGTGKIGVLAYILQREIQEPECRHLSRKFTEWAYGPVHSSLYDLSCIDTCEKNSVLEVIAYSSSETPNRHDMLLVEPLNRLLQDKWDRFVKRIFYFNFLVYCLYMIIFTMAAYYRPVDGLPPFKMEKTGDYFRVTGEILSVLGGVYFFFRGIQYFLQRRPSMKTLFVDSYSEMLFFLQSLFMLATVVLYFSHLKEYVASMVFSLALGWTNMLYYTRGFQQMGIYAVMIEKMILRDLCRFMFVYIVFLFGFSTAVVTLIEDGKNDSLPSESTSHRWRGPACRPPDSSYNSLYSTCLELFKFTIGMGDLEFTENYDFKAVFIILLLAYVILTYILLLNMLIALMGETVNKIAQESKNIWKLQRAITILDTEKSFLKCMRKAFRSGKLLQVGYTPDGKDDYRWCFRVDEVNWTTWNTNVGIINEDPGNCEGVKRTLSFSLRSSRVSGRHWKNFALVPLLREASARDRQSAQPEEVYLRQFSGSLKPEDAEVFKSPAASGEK

With `O=C(Nc1ccccc1Oc1ccccc1)N1CCC2(CC1)CC(c1ccc(C(F)(F)F)cc1)=NO2` [Compound 103, 3-(4-trifluoromethylphenyl)-1-oxa-2,8-diazaspiro[4.5]dec-2-ene-8-carboxylic acid-(2-phenoxyphenyl)amide], on vanilloid receptor (VR1), the inhibition at 10 µM is 8.28% and the activation at 10 µM was -0.35%. Further, in test [1], the inhibition at 10 µM came to 50.9% and the activation at 10 µM was -0.47%.

As for `O=C(Nc1ccc(C(F)(F)F)cc1)N1CCC2(CC1)CC(c1ccc(Cl)cc1)=NO2` [Compound 212, 3-(4-chlorophenyl)-1-oxa-2,8-diazaspiro[4.5]dec-2-ene-8-carboxylic acid-(4-trifluoromethylphenyl)amide], the results for the inhibition at 10 µM (on vanilloid receptor (VR1); in test [1]) were -16.1% and 61.9%, respectively. Moreover, the activation at 10 µM on vanilloid receptor (VR1) was -0.21%; in test [1], -0.43%.

In the case of `CC(C)(C)c1ccc(C2=NOC3(CCN(C(=O)Nc4ccc(Cl)cc4)CC3)C2)cc1` [Compound 42, 3-(4-tert-butylphenyl)-1-oxa-2,8-diazaspiro[4.5]dec-2-ene-8-carboxylic acid-(4-chlorophenyl)amide], the inhibition at 10 µM at vanilloid receptor (VR1) amounted to 2.57%; in test [1] it was 39.9%. The activation at 10 µM was -0.22% on vanilloid receptor (VR1) and -0.73% in test [1].

As for `CC(C)c1ccc(NC(=O)N2CCC3(CC2)CC(c2ccc(C(C)(C)C)cc2)=NO3)cc1` [Compound 80, 3-(4-tert-butylphenyl)-1-oxa-2,8-diazaspiro[4.5]dec-2-ene-8-carboxylic acid-(4-isopropylphenyl)amide], the inhibition at 10 µM against vanilloid receptor (VR1) worked out at 3.6%; in test [1] it was 62.1%. The activation at 10 µM was 0.89% on vanilloid receptor (VR1) and -0.47% in test [1].

Consider `Cc1ccc(C2=NOC3(CCN(C(=O)Nc4ccc(Cl)c(C(F)(F)F)c4)CC3)C2)cc1` [Compound 236, 3-p-tolyl-1-oxa-2,8-diazaspiro[4.5]dec-2-ene-8-carboxylic acid-(4-chloro-3-trifluoromethylphenyl)amide], for which, on vanilloid receptor (VR1), the inhibition at 10 µM is -10.3% and the activation at 10 µM was -0.28%. Further, in test [1], the inhibition at 10 µM was determined as 45.1% and the activation at 10 µM is -0.47%.

Turning to `COc1cccc(C2=NOC3(CCN(C(=O)C#Cc4ccc(C(F)(F)F)cc4)CC3)C2)c1` [Compound 361, 1-(3-(3-methoxyphenyl)-1-oxa-2,8-diazaspiro[4.5]dec-2-en-8-yl)-3-(4-(trifluoromethyl)phenyl)prop-2-yn-1-one], on vanilloid receptor (VR1), the inhibition at 10 µM turned out to be 12% and the activation at 10 µM turned out to be 0%. In addition, in test [1], the inhibition at 10 µM came out at 58% and the activation at 10 µM came to 0%.

`CCc1ccc(NC(=O)N2CCC3(CC2)CC(c2ccc(Cl)cc2)=NO3)cc1` [Compound 164, 3-(4-chlorophenyl)-1-oxa-2,8-diazaspiro[4.5]dec-2-ene-8-carboxylic acid-(4-ethylphenyl)amide]: the inhibition at 10 µM against vanilloid receptor (VR1) is -2.13%; in test [1], 72.9%. Further, the results for the activation at 10 µM (on vanilloid receptor (VR1); in test [1]) were -0.04% and -0.43%, respectively.

Consider `O=C(/C=C/c1cccc(Br)c1)N1CCC2(CC1)CC(c1ccccc1)=NO2` [Compound 346, (E)-3-(3-bromophenyl)-1-(3-phenyl-1-oxa-2,8-diazaspiro[4.5]dec-2-en-8-yl)prop-2-en-1-one], for which the values for the inhibition at 10 µM (against vanilloid receptor (VR1); in test [1]) were 3% and 62%, respectively. Moreover, the activation at 10 µM (at vanilloid receptor (VR1); in test [1]) was 0% in each case. Moreover, the values for the IC50 (on vanilloid receptor (VR1) (setting [2]); in test [1] (setting [2])) were 4380 nM and 1360 nM, respectively.

Consider `Cc1ccc(C2=NOC3(CCN(C(=O)Nc4ccc(C(C)C)cc4)CC3)C2)cc1` [Compound 81, 3-p-tolyl-1-oxa-2,8-diazaspiro[4.5]dec-2-ene-8-carboxylic acid-(4-isopropylphenyl)amide], for which, on vanilloid receptor (VR1), the inhibition at 10 µM is -2.79% and the activation at 10 µM is -0.35%. Also, in test [1], the inhibition at 10 µM turned out to be 58.8% and the activation at 10 µM was -0.47%.

For `CC(C)(C)c1ccc(NC(=O)N2CCC3(CC2)CC(c2ccc(C(C)(C)C)cc2)=NO3)cc1` [Compound 143, 3-(4-tert-butylphenyl)-1-oxa-2,8-diazaspiro[4.5]dec-2-ene-8-carboxylic acid-(4-tert-butylphenyl)amide], on vanilloid receptor (VR1), the inhibition at 10 µM was -7.17% and the activation at 10 µM is 4.12%. In addition, in test [1], the inhibition at 10 µM is 45.7% and the activation at 10 µM is -0.33%.

`O=C(Nc1ccccc1)N1CCC2(CC1)CC(c1ccc(Cl)cc1)=NO2` [Compound 3, 3-(4-chlorophenyl)-1-oxa-2,8-diazaspiro[4.5]dec-2-ene-8-carboxylic acid phenylamide]: on vanilloid receptor (VR1), the inhibition at 10 µM turned out to be 13.4% and the activation at 10 µM was 0.01%. For the same molecule, in test [1], the inhibition at 10 µM was found to be 43.8% and the activation at 10 µM was -0.73%.

For the molecule `CC(C)(C)c1ccc(CCC(=O)N2CCC3(CC2)CC(c2ccccc2)=NO3)cc1` [Compound 350, 3-(4-tert-butylphenyl)-1-(3-phenyl-1-oxa-2,8-diazaspiro[4.5]dec-2-en-8-yl)propan-1-one], at vanilloid receptor (VR1), the inhibition at 10 µM was -4% and the activation at 10 µM was 0%. Besides, in test [1], the inhibition at 10 µM stood at 81% and the activation at 10 µM amounted to 1%.

As to `FS(F)(F)(F)(F)c1ccc(NC(=S)N2CCC3(CC2)CC(c2ccccc2)=NO3)cc1` [Compound 330, 3-phenyl-1-oxa-2,8-diazaspiro[4.5]dec-2-ene-8-thiocarboxylic acid-(4-pentafluorosulphanylphenyl)amide], in test [1], the inhibition at 10 µM came out at 103% and the activation at 10 µM worked out at 1%.

The values above are taken from patent US8772307B2, “Substituted spiro compounds and their use for producing pain-relief medicaments” (Gruenenthal GmbH, priority 2005, dated 2014).
